By Cmax is commonly meant the peak of the concentration-time curve. As a reminder, the Tmax is the time from dosing to the highest level. The Vss is a proportionality between amount in the body and measured concentration, not a real space. A word on the AUC(0-inf): it is the area under the concentration-time curve extrapolated to infinity. The low end stands for less exposure, the high end for more exposure. The AUC(0-t) is the area under the concentration-time curve up to a stated or last time point. As usually defined, the half-life is how long it takes for the measured level to halve. A higher half-life goes with slow loss. As usually defined, the clearance is the rate of elimination divided by the concentration. Low readings indicate a low capacity for elimination, high ones a high capacity for elimination.

The text below walks through data of publication PMC7501296, “Rapid and direct control of target protein levels with VHL-recruiting dTAG molecules” (Nature Communications, 2020).

Each structure is given as a SMILES string. Read-outs that look alike come from different tables or passages of the source.

A short description of data set [1]: Pharmacokinetic evaluation in mice. Type of data set: in vivo, C57BL/6J male mice. Particulars: for exposure (AUCinf) / half-life (T1/2): intraperitoneal administration at 10 mg kg^−1. The source says: For IP injections, dTAG-13 and dTAG^V-1 were formulated by dissolving into DMSO and then diluting with 20% solutol (Sigma): 0.9% sterile saline (Moltox) (w:v) with the final formulation containing 5% DMSO. […] Formulations were stable at room temperature for 7 days. For IV injections, dTAG-13 and dTAG^V-1 were formulated by dissolving into DMSO and then diluting with 5% solutol (Sigma): 0.9% sterile saline (Moltox) (w:v) with the final formulation containing 5% DMSO. All procedures for PK studies were compliant with ethical regulations for animal testing and research, and were approved by and performed in accordance with standards of the Institute Animal Care and Use Committee (IACUC) at Scripps Florida. Housing conditions for mice at Scripps Florida were as follows: lights on = 7 AM, lights off = 7 PM, average ambient temperature = 72 °F, and average humidity = 45%. PK was assessed in 8-week-old C57BL/6J male mice (Jackson Laboratory, #000664) with blood collected at 0.08, 0.25, 0.5, 1, 2, 4, 6, and 8 h (2 mg kg^−1 dTAG-13 intravenous (IV) tail vein, 10 mg kg^−1 dTAG-13 intraperitoneal (IP), and 2 mg kg^−1 dTAG^V-1 IV tail vein administrations) and 0.25, 0.5, 1, 2, 4, 6, 8, 24 and 48 h (2 mg kg^−1 dTAG^V-1 IP and 10 mg kg^−1 dTAG^V-1 IP administrations). Plasma was generated by centrifugation and plasma concentrations were determined by LC-MS/MS following the mass transition 49600à340 AMU. PK parameters were calculated using Phoenix WinNonlin to determine peak plasma concentration (Cmax), oral bioavailability (%F), exposure (AUC), half-life (t1/2), clearance (CL), and volume of distribution (Vd).

For the next data set, the target named is T1, FKBP12^F36V-KRAS^G12V (Homo sapiens, UniProt P01116+P62942, F37V/G12V).
T1 construct: KRAS G12V (fusion partner, same polypeptide); expressed in transfected cells
T1 sequence (P62942+P01116 fused P62942:F37V/P01116:G12V): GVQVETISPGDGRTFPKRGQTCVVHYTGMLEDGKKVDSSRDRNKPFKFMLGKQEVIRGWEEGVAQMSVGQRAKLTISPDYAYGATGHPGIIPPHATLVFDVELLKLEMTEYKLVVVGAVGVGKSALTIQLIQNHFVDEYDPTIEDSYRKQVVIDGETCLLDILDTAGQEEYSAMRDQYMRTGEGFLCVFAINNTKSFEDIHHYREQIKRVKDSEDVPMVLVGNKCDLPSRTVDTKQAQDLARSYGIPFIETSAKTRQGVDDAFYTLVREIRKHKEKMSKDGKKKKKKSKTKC
In words: Immunoblot of PATU-8902 FKBP12F36V-KRASG12V; KRAS-/- clone. The format is cell-based. Particulars: time-course. As for the experimental part: (§1) PATU-8902 LACZ-FKBP12^F36V and FKBP12^F36V-KRAS^G12V; KRAS^−/− cells and 293T cells were lysed with RIPA buffer supplemented with cOmplete protease inhibitors (Roche), PhosSTOP phosphatase inhibitors (Roche), and 0.1% benzonase (Novagen). Proteins were separated using NuPAGE Bolt^TM Bis–Tris gels (Thermo Fisher Scientific) and transferred to nitrocellulose membranes, which were blocked with Odyssey Blocking Buffer (LI-COR) and incubated with primary antibodies overnight. Membranes were washed three times with TBS-T, incubated with the appropriate fluorescently labeled infrared secondary antibodies, washed again three times with TBS-T, and assessed using an Odyssey CLx Imager (LI-COR)[6],[15]. EWS502 cells were lysed with Cell Lysis Buffer (Cell Signaling Technology) supplemented with cOmplete protease inhibitors (Roche). Proteins were separated using SDS-PAGE gels and transferred to PVDF membranes, which were blocked with 5% milk in TBS-T and incubated with primary antibodies overnight. Membranes were washed five times with TBS-T, incubated with the appropriate horseradish peroxidase-conjugated secondary antibodies, washed again five times with TBS-T, and imaged. The following primary antibodies were employed in this study: HA (Cell Signaling Technology #3724 and #2367, dilution at 1:1000), phospho-ERK1/2 T202/Y204 (Cell Signaling Technology #4370, dilution at 1:1000), ERK1/2 (Cell Signaling Technology #4696, dilution at 1:1000), phospho-AKT S473 (Cell Signaling Technology #4060, dilution at 1:1000), AKT (Cell Signaling Technology #2920, dilution at 1:1000), FKBP12 (Abcam #ab24373, dilution at 1:1000), GFP (Cell Signaling Technology #2555, dilution at 1:1000), FLI (Abcam #ab15289, dilution at 1:2000), NKX2-2 (Abcam #ab187375, dilution at 1:1000), GAPDH (Cell Signaling Technology #2118, dilution at 1:3000), Vinculin (Cell Signaling Technology #13901, dilution at 1:3000), β-Actin (Cell Signaling Technology #58169, dilution at 1:3000), and α-Tubulin (Cell Signaling Technology #3873, dilution at 1:5000). Species-specific fluorescently labeled infrared secondary antibodies including IRDye 680LT anti-Mouse IgG (LI-COR #926-68020, dilution at 1:5000), IRDye 800CW anti-Mouse IgG (LI-COR #926-32210, dilution at 1:5000), IRDye 680LT anti-Rabbit IgG (LI-COR #926-68021, dilution at 1:5000), and IRDye 800CW anti-Rabbit IgG (LI-COR #926-32211, dilution at 1:5000) and peroxidase-linked secondary antibodies including anti-Mouse IgG (Thermo Fisher Scientific #45000680, dilution at 1:5000) and anti-Rabbit IgG (Thermo Fisher Scientific #45000682, dilution at 1:5000) were employed as appropriate.

The next data set deals with T2, CDK9 (Homo sapiens, UniProt P50750).
T2 construct: endogenous in cells; host or cells: PATU-8902 LACZ-FKBP12^F36V clone
The data set can be described thus: Immunoblot, co-treatment with THAL-SNS-032 and/or dTAGV-1 in PATU-8902 LACZ-FKBP12F36V clone. Type of data set: cell-based. As to the method: as §1, with “Species-specific fluorescently labeled infrared secondary antibodies including IRDye 680LT anti-Mouse IgG (LI-COR #926-68020, dilution at 1:5000), IRDye 800CW anti-Mouse IgG (LI-COR #926-32210, dilution at 1:5000), IRDye 680LT anti-Rabbit IgG (LI-COR #926-68021, dilution at 1:5000), and IRDye 800CW anti-Rabbit IgG (LI-COR #926-32211, dilution at 1:5000) and peroxidase-linked secondary antibodies including anti-Mouse IgG (Thermo Fisher Scientific #45000680, dilution at 1:5000) and anti-Rabbit IgG (Thermo Fisher Scientific #45000682, dilution at 1:5000) were employed as appropriate.” left out

For the next data set, the system named is MED14. On the set-up: method as in PMID 32483291. The conditions noted are these: HCT116 cells; cited from earlier work.
The next data set deals with LACZ-FKBP12^F36V. The data set can be described thus: Immunoblot of PATU-8902 LACZ-FKBP12F36V clone. The format is cell-based. The conditions noted are these: PATU-8902 LACZ-FKBP12F36V cells, 4 h. As to the method: PATU-8902 LACZ-FKBP12^F36V and FKBP12^F36V-KRAS^G12V; KRAS^−/− cells and 293T cells were lysed with RIPA buffer supplemented with cOmplete protease inhibitors (Roche), PhosSTOP phosphatase inhibitors (Roche), and 0.1% benzonase (Novagen). Proteins were separated using NuPAGE Bolt^TM Bis–Tris gels (Thermo Fisher Scientific) and transferred to nitrocellulose membranes, which were blocked with Odyssey Blocking Buffer (LI-COR) and incubated with primary antibodies overnight. Membranes were washed three times with TBS-T, incubated with the appropriate fluorescently labeled infrared secondary antibodies, washed again three times with TBS-T, and assessed using an Odyssey CLx Imager (LI-COR)[6],[15]. EWS502 cells were lysed with Cell Lysis Buffer (Cell Signaling Technology) supplemented with cOmplete protease inhibitors (Roche). Proteins were separated using SDS-PAGE gels and transferred to PVDF membranes, which were blocked with 5% milk in TBS-T and incubated with primary antibodies overnight. Membranes were washed five times with TBS-T, incubated with the appropriate horseradish peroxidase-conjugated secondary antibodies, washed again five times with TBS-T, and imaged. […]
On the technique in general: A western blot detects proteins with antibodies after separation by electrophoresis.

Where [2] appears, read: male, C57BL/6J, mouse, plasma, IP, 2 mg kg-1.
Setting [3] is: male, C57BL/6J, mouse, plasma, IP, 10 mg kg-1.
Where [4] appears, read: male, C57BL/6J, mouse, plasma, IV, 2 mg kg-1.

In data set [1] (IP, 10 mg kg-1), `CC[C@H](C(=O)N1CCCC[C@H]1C(=O)O[C@H](CCc1ccc(OC)c(OC)c1)c1ccccc1OCC(=O)NCCCCCCOc1cccc2c1C(=O)N(C1CCC(=O)NC1=O)C2=O)c1cc(OC)c(OC)c(OC)c1` (stereo partly drawn) [dTAG-13] showed an AUCinf of 6140 ng·h/mL, an AUClast of 5619 ng·h/mL, a CL of 28 mL/min/kg and a Cmax of 1263 ng/mL. Besides, in data set [1] (IP, 10 mg kg-1), the T1/2 turned out to be 2.41 h and the Tmax turned out to be 2.00 h. In addition, in data set [1] (IV, 2 mg kg-1), the AUCinf was determined as 1253 ng·h/mL, the AUClast came to 1242 ng·h/mL, the CL is 32.5 mL/min/kg and the highest concentration (Cmax) was 2373 ng/mL. Further, in data set [1] (IV, 2 mg kg-1), the T1/2 was 1.46 h, the Tmax is 0.08 h and the distribution volume (Vss) was 1.8 L/kg. For the same molecule, in data set [1], the “exposure (AUCinf)” value is 6140 ng·h/mL and the “half-life (T1/2)” value came out at 2.41 h.
As to `CCC(C(=O)N1CCCCC1C(=O)OC(CCc1ccc(OC)c(OC)c1)c1ccccc1OCC(=O)NCCCCCCC(=O)NC(C(=O)N1CC(O)CC1C(=O)NC(C)c1ccc(-c2scnc2C)cc1)C(C)(C)C)c1cc(OC)c(OC)c(OC)c1` (stereo not drawn) [dTAG^V-1-NEG], at FKBP12^F36V-KRAS^G12V, the “KRASG12V degradation, immunoblot” value is on record as “not induced”.
As to `CC[C@H](C(=O)N1CCCC[C@H]1C(=O)O[C@H](CCc1ccc(OC)c(OC)c1)c1ccccc1OCC(=O)NCCCCCCC(=O)N[C@H](C(=O)N1C[C@H](O)C[C@H]1C(=O)N[C@@H](C)c1ccc(-c2scnc2C)cc1)C(C)(C)C)c1cc(OC)c(OC)c(OC)c1` [dTAG^V-1], on CDK9 (co-treatment dTAGV-1 + THAL-SNS-032, 24 h), the “Degradation of both LACZ-FKBP12F36V and CDK9 on co-treatment” value is “pronounced degradation”. In addition, the CDK9 protein levels entry at CDK9 (dTAGV-1 alone, 24 h) is given as “did not alter”. For the same molecule, the CL in data set [1] (IP, 2 mg kg-1) stood at 10.7 mL/min/kg; in data set [1] (IP, 10 mg kg-1) it was 9.05 mL/min/kg. For the same molecule, the “exposure (AUCinf)” value in data set [1] is 18,517 h ng mL^−1. Also, the “half-life (T1/2)” value in data set [1] is 4.43 h. Besides, the AUC(0-inf) is 3140 ng·h/mL in data set [1] (setting [2]), 18500 ng·h/mL in data set [1] (setting [3]) and 3330 ng·h/mL in data set [1] (setting [4]). Also, the AUC(0-t) in data set [1] (setting [2]) amounted to 2240 ng·h/mL; in data set [1] (setting [3]), 18100 ng·h/mL; in data set [1] (setting [4]), 3240 ng·h/mL. Further, the results for the half-life in data set [1] (setting [2]), in data set [1] (setting [3]) and in data set [1] (setting [4]) were 3.64 h, 4.43 h and 3.02 h, respectively. In addition, the peak concentration (Cmax) was 595 ng/mL in data set [1] (male, C57BL/6J, mouse, plasma, IP, 2 mg kg-1, read-out: Cmax); 2120 ng/mL in data set [1] (male, C57BL/6J, mouse, plasma, IP, 10 mg kg-1, read-out: Cmax); 7780 ng/mL in data set [1] (male, C57BL/6J, mouse, plasma, IV, 2 mg kg-1, read-out: Cmax). Further, the Tmax in data set [1] (male, C57BL/6J, mouse, plasma, IP, 2 mg kg-1, read-out: Tmax) stood at 1.67 h; in data set [1] (male, C57BL/6J, mouse, plasma, IP, 10 mg kg-1, read-out: Tmax) it was 2 h; in data set [1] (male, C57BL/6J, mouse, plasma, IV, 2 mg kg-1, read-out: Tmax) it was 0.08 h. In data set [1] (setting [4]), this molecule came in with a clearance of 10.1 mL/min/kg. Also, the Vd in data set [1] (male, C57BL/6J, mouse, plasma, IV, 2 mg kg-1, read-out: Vss) came out at 0.56 L/kg. The “Degradation of MED14” value in the data set with MED14 was “effective degradation”. Also, the “Degradation of FKBP12F36V-fusion (LACZ-FKBP12F36V), immunoblot” value in the data set on LACZ-FKBP12^F36V was “effective degradation”. Moreover, the “KRASG12V degradation, immunoblot” value on FKBP12^F36V-KRAS^G12V is “rapid KRAS^G12V degradation”.
